Measurements from US20030158118A1, “Combination of cimetidine and cysteine derivatives for treating cancer” (priority 2001, published 2003).

Tested on: CT26 colorectal cancer cells
Assay: Tumor growth in BALB/c mice grafted with syngenic CT26 colorectal cancer cells
Assay type: in vivo
Conditions: day 33; drinking water: compound 20 1.5 mg/ml (150 mg/kg daily), cimetidine or N-acetyl cysteine 0.75 mg/ml (75 mg/kg daily); vs vehicle
Description: The effect of a complex of the invention and the effect of the components of the complex is tested on tumor growth in BALB/c mice grafted with syngenic CT26 colorectal cancer cells. The aim of the study is to compare the effect on tumor growth of the complex of the invention versus the effect of the two components of the complex individually. […] Compound 20, cimetidine and […] dissolved in drinking water. […] The solutions are available ad libitum in the entire study period. […] The doses of cimetidine and N-acetylcysteine are selected to correspond to the doses of each individual compound obtained by administration of […] of compound 20. In these studies, female BALB/c mice with an age of 6 weeks are used. Ten mice are included per group. The mice are caged in standard cages at a temperature of 21° C.-23° C. controlled via the ambient ventilation system in the laboratory. Light cycle is 12-hour dark and 12-hour light (lights on 06.00). Diet is Altromin 1314 special formulation, Produced by Altromin Denmark, Chr. Pedersen A/S, 4100 Ringsted, Denmark. Water is acidified with citric acid. Diet and water is administered ad libitum. The mice are randomised to test groups of ten mice. After one week of acclimatisation each mouse is injected subcutaneously with appr. […] Tumor diameters are measured in two dimensions using a digital slide gauge.

SMILES | tumor growth inhibited [%]
CC(=O)N[C@@H](CS)C(=O)O [N-acetyl cysteine] | 19
CN/C(=N/CCSCc1nc[nH]c1C)NC#N [cimetidine] | 8
